Measured values from patent US20170014432A1, “COMPOSITIONS AND METHODS FOR REDUCING CHRONIC LOW-LEVEL INFLAMMATION” (priority 2014, published 2017).

System: delta-5-desaturase
Test: Two-week feeding study, AA/DGLA ratio in plasma
Assay type: in vivo, mice
Settings: for Average % decrease in AA/DGLA Ratio in Plasma: mice, 36.7 mg/day sesamol palmitate in safflower oil by gavage, low-fat diet
Procedure: To determine the ability of a sesamol derivative of the present invention to inhibit the formation of arachidonic acid, a two-week feeding study was done with two groups of mice with 8 mice in each group. We mixed 4.4 g of sesamol palmitate into 60 ml of safflower oil. This provided a concentration of sesamol palmitate of 73.3 mg/ml. The mice in the sesamol group received 500 μl each day (36.7 mg) via gavage of the sesamol palmitate compound in safflower oil whereas the control group received 500 μl of the safflower oil control. Both groups were maintained on a low-fat diet. 200 μl of blood was drawn at three time points (0, 1, and 2 weeks) for analysis of the fatty acid composition in the plasma.
Since the sesamol derivative, sesamol palmitate, inhibits the enzyme delta-5-desaturase that converts dihomo gamma linolenic acid (DGLA) to arachidonic acid (AA), we choose to look at the decrease in the AA/DGLA ratio as an indication of efficacy of sesamol palmitate in inhibiting the key enzyme. The percent difference between the AA/DGLA ratio in each […] was determined at the starting point and at days 7 and 14. The percent differences in the AA/DGLA per each rat in the active and placebo groups were then averaged.

CCCCCCCCCCCCCCCC(=O)Oc1ccc2c(c1)OCO2 [Sesamol Palmitate]
Average % decrease in AA/DGLA Ratio in Plasma (Days 0-7): −25.4%
Average % decrease in AA/DGLA Ratio in Plasma (Days 0-14): −23.4%
Average decrease in the AA/DGLA ratio relative to placebo group (active group versus placebo group): approximately double
